Test results: patent US20140128380A1, “METHODS OF MODULATING THE ACTIVITY OF THE MC1 RECEPTOR AND TREATMENT OF CONDITIONS RELATED TO THIS RECEPTOR” (Mimetica Pty Ltd, priority 2009, published 2014)

target: T1, human MC1R (hMC1R) (Homo sapiens, UniProt Q01726); test: Human MC1R radioligand binding assay (displacement of 125I-labeled NDP-MSH, Perkin Elmer hMC1R membranes); conditions: displacement of [125I]NDP-MSH, compounds tested as trifluoroacetate or hydrochloride salts or free base
T1 construct: purchased Perkin Elmer ES-195-M400UA
T1 sequence (Q01726 whole entry): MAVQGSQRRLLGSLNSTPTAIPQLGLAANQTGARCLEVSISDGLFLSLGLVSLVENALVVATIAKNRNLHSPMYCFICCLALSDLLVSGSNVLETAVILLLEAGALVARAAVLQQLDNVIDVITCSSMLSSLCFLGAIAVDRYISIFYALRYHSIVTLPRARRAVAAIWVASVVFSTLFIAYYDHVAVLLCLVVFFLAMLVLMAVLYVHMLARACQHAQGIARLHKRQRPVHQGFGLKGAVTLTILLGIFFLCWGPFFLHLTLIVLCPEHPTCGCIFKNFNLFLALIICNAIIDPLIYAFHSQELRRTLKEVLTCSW
Description: Assessments of compound binding to human MC1R (hMC1R)) by displacement of an ^125I-labeled NDP-MSH receptor ligand peptide were performed essentially as described in the data sheets produced by Perkin Elmer to accompany their frozen hMC1R membranes (Perkin Elmer catalog number ES-195-M400UA).
[^125I] NDP-MSH: radiolabeled in house and purified by HPLC:
Na ^125I (0.5 mCi, 17.4 Ci/mg) was added to 50 μL sodium phosphate (50 mM, pH 7.4) in an eppendorf tube precoated with IODOGEN. After incubation for 10 mins the phosphate buffer containing the iodine was added to NDP-MSH (10 ul at 1 mg/mL) in a separate eppendorf tube. This was incubated for a further 10 mins. The iodinated NDP-MSH was purified by HPLC on a Zorbax SB 300 column using solvent A: 0.05% TFA and solvent B: 90% acetonitrile 0.045% TFA with a linear gradient, 0-67% B over 60 mins.
Perkin Elmer frozen hMC1 membranes: catalog number ES-195-M400UA, 0.4 mL/vial; 400 microassays/vial, 0.78 mg/mL protein concentration
Vials of frozen membranes were thawed rapidly immediately before use, diluted with binding buffer and vortexed. Resuspended membranes were kept on ice until they were added to the wells of the plate.
Assays were performed in 96 well polypropylene plates. […] This was incubated for 1 hr at 37° C.

| IC50 [µM] | Compound |
| --- | --- |
| < 10 | CNC(=O)[C@H](Cc1ccc2ccccc2c1)N1CC[C@H](CNCc2ccc(F)cc2)N[C@@H](CCCNC(=N)N)C1=O [Compound 143, (S)-2-((3S,5R)-5-((4-fluorobenzylamino)methyl)-3-(3-guanidinopropyl)-2-oxo-1,4-diazepan-1-yl)-N-methyl-3-(naphthalen-2-yl)propanamide] |
| < 10 | N=C(N)NCCC[C@@H]1N[C@H](CNC(=O)c2ccc3ccccc3c2)CCN(CC(Oc2ccccc2)c2ccccc2)C1=O (stereo partly drawn) [Compound 138, N-(((3S,5S)-3-(3-guanidinopropyl)-2-oxo-1-(2-phenoxy-2-phenylethyl)-1,4-diazepan-5-yl)methyl)-2-naphthamide] |
| < 10 | CC[C@H](CN1CC[C@@H](CNC(=O)c2ccc3cc(Cl)ccc3c2)N[C@@H](CCN(C(C)=O)C(C)C)C1=O)c1ccccc1 [Compound 180, 6-chloro-N-(((3S,5S)-3-(2-(N-isopropylacetamido)ethyl)-2-oxo-1-((S)-2-phenylbutyl)-1,4-diazepan-5-yl)methyl)-2-naphthamide] |
| < 10 | NC[C@@H]1N[C@H](CNC(=O)c2ccc(Cl)c(Cl)c2)CCN(Cc2cc(Cl)cc(Cl)c2)C1=O [Compound 148, N-(((3S,5S)-3-(aminomethyl)-1-(3,5-dichlorobenzyl)-2-oxo-1,4-diazepan-5-yl)methyl)-3,4-dichlorobenzamide] |
| < 10 | N=C(N)NCCC[C@@H]1N[C@H](CNC(=O)c2ccc(-c3ccccc3)cc2)CCN(CC(c2ccccc2)c2ccccc2)C1=O [Compound 108, N-(((3S,5S)-1-(2,2-diphenylethyl)-3-(3-guanidinopropyl)-2-oxo-1,4-diazepan-5-yl)methyl)biphenyl-4-carboxamide] |
| < 10 | O=C(NC[C@@H]1CCN(CC(c2ccccc2)c2ccccc2)C(=O)[C@H](CCN2CCOCC2)N1)c1ccc2cc(Cl)ccc2c1 [Compound 181, 6-chloro-N-(((3S,5S)-1-(2,2-diphenylethyl)-3-(2-morpholinoethyl)-2-oxo-1,4-diazepan-5-yl)methyl)-2-naphthamide] |
| < 10 | NCCCC[C@H]1N[C@H](CNC(=O)c2ccc(-c3ccccc3)cc2)CCN(CCc2ccccc2)C1=O [Compound 184, N-(((3R,5S)-3-(4-aminobutyl)-2-oxo-1-phenethyl-1,4-diazepan-5-yl)methyl)biphenyl-4-carboxamide] |
| < 10 | O=C(/C=C/c1ccc(Cl)cc1)NC[C@@H]1CCN(CC(c2ccccc2)c2ccccc2)C(=O)[C@H](CCN2CCOCC2)N1 [Compound 159, (E)-3-(4-chlorophenyl)-N-(((3S,5S)-1-(2,2-diphenylethyl)-3-(2-morpholinoethyl)-2-oxo-1,4-diazepan-5-yl)methyl)acrylamide] |
| < 10 | NCCC[C@@H]1N[C@H](CNC(=O)c2cc(-c3ccc(Cl)cc3)on2)CCN(CC(c2ccccc2)c2ccccc2)C1=O [Compound 129] |
| < 10 | CC(C)c1ccc(/C=C/C(=O)NC[C@@H]2CCN(CC(c3ccccc3)c3ccccc3)C(=O)[C@H](CCN3CCCCC3)N2)cc1 [Compound 155, (E)-N-(((3S,5S)-1-(2,2-diphenylethyl)-2-oxo-3-(2-(piperidin-1-yl)ethyl)-1,4-diazepan-5-yl)methyl)-3-(4-isopropylphenyl)acrylamide] |
| < 10 | CNC(=O)[C@H](Cc1ccc2ccccc2c1)N1CC[C@H](CNC(=O)[C@H](N)Cc2ccc(F)cc2)N[C@@H](CCCNC(=N)N)C1=O [Compound 168, (R)-2-amino-3-(4-fluorophenyl)-N-(((3S,5R)-3-(3-guanidinopropyl)-1-((S)-1-(methylamino)-3-(naphthalen-2-yl)-1-oxopropan-2-yl)-2-oxo-1,4-diazepan-5-yl)methyl)propanamide] |
| < 10 | NCC[C@@H]1N[C@H](CNC(=O)c2ccc(Cl)c(Cl)c2)CCN(Cc2cc(Cl)cc(Cl)c2)C1=O [Compound 140, N-(((3S,5S)-3-(2-aminoethyl)-1-(3,5-dichlorobenzyl)-2-oxo-1,4-diazepan-5-yl)methyl)-3,4-dichlorobenzamide] |
| < 10 | COc1c(C(=O)NC[C@@H]2CCN(CC(c3ccccc3)c3ccccc3)C(=O)[C@H](CCCNC(=N)N)N2)ccc2ccccc12 [Compound 115, N-(((3S,5S)-1-(2,2-diphenylethyl)-3-(3-guanidinopropyl)-2-oxo-1,4-diazepan-5-yl)methyl)-1-methoxy-2-naphthamide] |
| < 10 | N=C(N)NCCC[C@@H]1N[C@H](CNC(=O)c2ccc3ccccc3c2)CCN(CC2c3ccccc3-c3ccccc32)C1=O [Compound 126, N-(((3S,5S)-1-((9H-fluoren-9-yl)methyl)-3-(3-guanidinopropyl)-2-oxo-1,4-diazepan-5-yl)methyl)-2-naphthamide] |
| < 10 | N=C(N)NCCC[C@@H]1N[C@H](CNC(=O)c2ccc3ccccc3c2)CCN(c2ccc3ccccc3c2)C1=O [Compound 125, N-(((3S,5S)-3-(3-guanidinopropyl)-1-(naphthalen-2-yl)-2-oxo-1,4-diazepan-5-yl)methyl)-2-naphthamide] |
| < 10 | O=C(NC[C@@H]1CCN(CC(c2ccccc2)c2ccccc2)C(=O)[C@H](CCCNC2CCCCC2)N1)c1ccc2ccccc2c1 [Compound 124, N-(((3S,5S)-3-(3-(cyclohexylamino)propyl)-1-(2,2-diphenylethyl)-2-oxo-1,4-diazepan-5-yl)methyl)-2-naphthamide] |
| < 10 | O=C(/C=C/c1ccc(Cl)cc1)NC[C@@H]1CCN(Cc2cc(Cl)cc(Cl)c2)C(=O)[C@H](CN2CCCCC2)N1 [Compound 152, (E)-3-(4-chlorophenyl)-N-(((3S,5S)-1-(3,5-dichlorobenzyl)-2-oxo-3-(piperidin-1-ylmethyl)-1,4-diazepan-5-yl)methyl)acrylamide] |
| < 10 | N=C(N)NCCC[C@@H]1N[C@H](CNC(=O)c2ccc3ccccc3c2)CCN(CCC2CCCCC2)C1=O [Compound 130, N-(((3S,5S)-1-(2-cyclohexylethyl)-3-(3-guanidinopropyl)-2-oxo-1,4-diazepan-5-yl)methyl)-2-naphthamide] |
| < 10 | CCC(CN1CC[C@@H](CNC(=O)/C=C/c2ccc(Cl)cc2)N[C@@H](CCN)C1=O)c1ccccc1 (stereo partly drawn) [Compound 153, (E)-N-(((3S,5S)-3-(2-aminoethyl)-2-oxo-1-(2-phenylbutyl)-1,4-diazepan-5-yl)methyl)-3-(4-chlorophenyl)acrylamide] |
| < 10 | NCC[C@@H]1N[C@H](CNC(=O)c2ccc(Cl)c(Cl)c2)CCN(CC(c2ccccc2)c2ccccc2)C1=O [Compound 135, N-(((3S,5S)-3-(2-aminoethyl)-1-(2,2-diphenylethyl)-2-oxo-1,4-diazepan-5-yl)methyl)-3,4-dichlorobenzamide] |
| < 1 | CC[C@H](CN1CC[C@@H](CNC(=O)c2ccc3cc(Cl)ccc3c2)N[C@@H](CC(C)(C)N2CCCCC2)C1=O)c1ccccc1 [Compound 171, 6-chloro-N-(((3S,5S)-3-(2-methyl-2-(piperidin-1-yl)propyl)-2-oxo-1-((S)-2-phenylbutyl)-1,4-diazepan-5-yl)methyl)-2-naphthamide] |
| < 10 | CC[C@H](CN1CC[C@@H](CNC(=O)c2ccc(-c3ccccc3)cc2)N[C@@H](CCN2CCCCC2)C1=O)c1ccccc1 [Compound 177, N-(((3S,5S)-2-oxo-1-((S)-2-phenylbutyl)-3-(2-(piperidin-1-yl)ethyl)-1,4-diazepan-5-yl)methyl)biphenyl-4-carboxamide] |
